What was measured:
Conditions in all cases: stereoisomer not certain
[1] = RP, Waters CORTECS T3, 100 × 2.1 mm, 2.7 µm, 0.2 mL/min, estimated dead time 1.1 min; A: water + 0.1% formic acid, pH 3; B: methanol + 0.1% formic acid, pH 3; gradient (min/%B) 0/5 5/5 25/95 25.1/100 35/100 35.1/5 45/5
[2] = RP, Waters ACQUITY UPLC BEH C18, 100 × 2.1 mm, 1.7 µm, 0.1 mL/min, estimated dead time 2.2 min; A: water + 0.1% formic acid, pH 3; B: methanol + 0.1% formic acid, pH 3; gradient (min/%B) 0/5 5/5 25/95 25.1/100 35/100 35.1/5 45/5
[3] = RP, Waters CORTECS T3, 100 × 2.1 mm, 2.7 µm, 0.3 mL/min, estimated dead time 0.73 min; A: water + 0.1% formic acid, pH 3; B: methanol + 0.1% formic acid, pH 3; gradient (min/%B) 0/0 5/0 25/100 30/100 30.1/0 35/0
[4] = RP, Waters ACQUITY UPLC BEH C18, 100 × 2.1 mm, 1.7 µm, 0.2 mL/min, estimated dead time 1.1 min; A: water + 0.1% formic acid, pH 3; B: methanol + 0.1% formic acid, pH 3; gradient (min/%B) 0/5 5/5 25/100 30/100 30.1/5 35/5
[5] = RP, Waters CORTECS T3, 100 × 2.1 mm, 2.7 µm, 0.15 mL/min, estimated dead time 1.5 min; A: water + 0.1% formic acid, pH 3; B: methanol + 0.1% formic acid, pH 3; gradient (min/%B) 0/5 5/5 25/95 25.1/100 35/100 35.1/5 45/5
[6] = RP, Waters CORTECS T3, 100 × 2.1 mm, 2.7 µm, 0.25 mL/min, estimated dead time 0.88 min; A: water + 0.1% formic acid, pH 3; B: methanol + 0.1% formic acid, pH 3; gradient (min/%B) 0/5 5/5 25/95 25.1/100 35/100 35.1/5 45/5
[7] = HILIC, Waters XBridge BEH Amide, 100 × 2.1 mm, 2.5 µm, 0.5 mL/min, estimated dead time 0.44 min; A: water + 0.1% acetic acid + 10 mM ammonium acetate, pH 4; B: 5% water + 95% acetonitrile + 0.1% acetic acid + 10 mM ammonium acetate, pH 4; gradient (min/%B) 0/95 5/95 20/57 25/57 30/95 40/95
[8] = RP, Waters CORTECS T3, 100 × 2.1 mm, 2.7 µm, 0.3 mL/min, estimated dead time 0.73 min; A: water + 0.1% formic acid, pH 3; B: methanol + 0.1% formic acid, pH 3; gradient (min/%B) 0/0 1/0 6/5 30/100 35/100 35.1/0 40/0
[9] = RP, Waters CORTECS T3, 100 × 2.1 mm, 2.7 µm, 0.2 mL/min, estimated dead time 1.1 min; A: water + 0.1% formic acid, pH 3; B: methanol + 0.1% formic acid, pH 3; gradient (min/%B) 0/0 1/0 6/5 30/100 35/100 35.1/0 40/0
[10] = RP, Waters ACQUITY UPLC BEH C18, 100 × 2.1 mm, 1.7 µm, 0.2 mL/min, estimated dead time 1.1 min; A: water + 0.025% formic acid + 20 mM ammonium acetate + 0.055% ammonium hydroxide, pH 7; B: methanol; gradient (min/%B) 0/5 5/5 25/100 30/100 30.1/5 35/5
[11] = HILIC, Merck SeQuant ZIC-HILIC, 150 × 2.1 mm, 5 µm, 0.75 mL/min, estimated dead time 0.44 min; A: water + 10 mM ammonium formate, pH 6; B: 5% water + 95% acetonitrile + 10 mM ammonium formate, pH 6; gradient (min/%B) 0/95 5/95 20/57 25/57 30/95 40/95
[12] = RP, Waters CORTECS T3, 100 × 2.1 mm, 2.7 µm, 0.3 mL/min, estimated dead time 0.73 min; A: water + 0.1% formic acid, pH 3; B: methanol + 0.1% formic acid, pH 3; gradient (min/%B) 0/5 5/5 25/100 30/100 30.1/5 35/5
[13] = RP, Waters CORTECS T3, 100 × 2.1 mm, 2.7 µm, 0.3 mL/min, estimated dead time 0.73 min; A: water + 0.1% formic acid, pH 3; B: methanol + 0.1% formic acid, pH 3; gradient (min/%B) 0/0 5/0 25/100 30/100 30.1/0 35/0; remark: listed apart in the source
[14] = RP, Waters CORTECS T3, 100 × 2.1 mm, 2.7 µm, 0.25 mL/min, estimated dead time 0.88 min; A: water + 0.1% formic acid, pH 3; B: methanol + 0.1% formic acid, pH 3; gradient (min/%B) 0/0 1/0 6/5 30/100 35/100 35.1/0 40/0
[15] = RP, Waters CORTECS T3, 100 × 2.1 mm, 2.7 µm, 0.3 mL/min, estimated dead time 0.73 min; A: water + 0.1% formic acid, pH 3; B: methanol + 0.1% formic acid, pH 3; gradient (min/%B) 0/5 5/5 25/95 25.1/100 35/100 35.1/5 45/5
[16] = RP, Waters CORTECS T3, 100 × 2.1 mm, 2.7 µm, 0.3 mL/min, estimated dead time 0.73 min; A: water + 0.1% formic acid, pH 3; B: methanol + 0.1% formic acid, pH 3; gradient (min/%B) 0/0 1/0 6/5 30/100 35/100 35.1/0 40/0; remark: listed apart in the source
[17] = RP, Waters CORTECS T3, 100 × 2.1 mm, 2.7 µm, 0.15 mL/min, estimated dead time 1.5 min; A: water + 0.1% formic acid, pH 3; B: methanol + 0.1% formic acid, pH 3; gradient (min/%B) 0/0 1/0 6/5 30/100 35/100 35.1/0 40/0
[18] = RP, Waters CORTECS T3, 100 × 2.1 mm, 2.7 µm, 0.2 mL/min, estimated dead time 1.1 min; A: water + 0.1% formic acid, pH 3; B: methanol + 0.1% formic acid, pH 3; gradient (min/%B) 0/0 1/0 6/5 30/100 35/100 35.1/0 40/0; remark: listed apart in the source
[19] = RP, Waters ACQUITY UPLC BEH C18, 100 × 2.1 mm, 1.7 µm, 0.1 mL/min, estimated dead time 2.2 min; A: water + 0.1% formic acid, pH 3; B: methanol + 0.1% formic acid, pH 3; gradient (min/%B) 0/5 5/5 25/100 30/100 30.1/5 35/5
[20] = HILIC, Merck SeQuant ZIC-HILIC, 150 × 2.1 mm, 5 µm, 0.75 mL/min, estimated dead time 0.44 min; A: water + 0.1% acetic acid + 10 mM ammonium acetate, pH 4; B: 5% water + 95% acetonitrile + 0.1% acetic acid + 10 mM ammonium acetate, pH 4; gradient (min/%B) 0/95 5/95 20/57 25/57 30/95 40/95
[21] = RP, Waters CORTECS T3, 100 × 2.1 mm, 2.7 µm, 0.1 mL/min, estimated dead time 2.2 min; A: water + 0.1% formic acid, pH 3; B: methanol + 0.1% formic acid, pH 3; gradient (min/%B) 0/5 5/5 25/95 25.1/100 35/100 35.1/5 45/5
[22] = RP, Waters CORTECS T3, 100 × 2.1 mm, 2.7 µm, 0.1 mL/min, estimated dead time 2.2 min; A: water + 0.1% formic acid, pH 3; B: methanol + 0.1% formic acid, pH 3; gradient (min/%B) 0/0 1/0 6/5 30/100 35/100 35.1/0 40/0

LC retention time [1] [min]	LC retention time [2] [min]	LC retention time [3] [min]	LC retention time [4] [min]	LC retention time [5] [min]	LC retention time [6] [min]	LC retention time [7] [min]	LC retention time [8] [min]	LC retention time [9] [min]	LC retention time [10] [min]	LC retention time [11] [min]	LC retention time [20] [min]	SMILES	other results
14.3	13.3	9.23	9.48	10.4	7.94	8.06	8.96	10.6	2.97			CSCCC(NC(C)=O)C(=O)O (racemic) [N-ACETYL-DL-METHIONINE]	
2.67	2.67	0.89	1.38				0.92	1.35		14.5		Nc1ccn(C2CC(O)C(COP(=O)(O)O)O2)c(=O)n1 (stereo unspecified) [2'-DEOXYCYTIDINE 5'-MONOPHOSPHATE]	
2.75	2.7		1.38	1.78				1.42				N[C@@H](Cc1ccc(O)c(O)c1)C(=O)O [3,4-DIHYDROXY-L-PHENYLALANINE]	LC retention time [12]: 0.93 min; LC retention time [13]: 0.93 min; LC retention time [14]: 1.13 min; LC retention time [15]: 0.9 min; LC retention time [16]: 0.92 min; LC retention time [17]: 1.87 min; LC retention time [18]: 1.38 min; LC retention time [19]: 2.74 min
29.8		21.9	22.9	24.7	22.9		25.4		19.6			CC(CCC(=O)O)C1CCC2C3C(O)CC4CC(O)CCC4(C)C3CC(O)C12C (stereo unspecified) [CHOLATE]	
6.38	5.3	2.32	2.7	3.28	1.99		2.32	3.28		12.8	12.2	CC(O)(CC(=O)O)C(=O)O (stereo unspecified) [CITRAMALATE]	
		0.89		1.98				1.35				Nc1ccn(C2OC(COP(=O)(O)OP(=O)(O)O)C(O)C2O)c(=O)n1 (stereo unspecified) [CYTIDINE 5'-DIPHOSPHATE]	
19.1	17.2		14.3	15.1		2.26		15.6	1.78	2.09	3.23	COc1cc(C=CC(=O)O)ccc1O [FERULATE]	LC retention time [21]: 17.2 min; LC retention time [12]: 12.3 min; LC retention time [14]: 14.8 min; LC retention time [16]: 14.1 min; LC retention time [17]: 16.9 min
15.9		11.4	11.2	12.6	11.1		12.2	13.2	1.36	14.9	14.4	Nc1nc2ncc(CNc3ccc(C(=O)NC(CCC(=O)O)C(=O)O)cc3)nc2c(=O)[nH]1 (stereo unspecified) [FOLIC ACID]	LC retention time [12]: 10.5 min; LC retention time [13]: 11.3 min; LC retention time [14]: 12.6 min; LC retention time [15]: 10.7 min; LC retention time [16]: 12.2 min; LC retention time [22]: 11.7 min; LC retention time [18]: 13.2 min; LC retention time [19]: 13.8 min
12.2				7.38			6.25	8.23	1.41			CCOC(OCC)C(O)COP(=O)(O)O (stereo unspecified) [GLYCERALDEHYDE 3-PHOSPHATE DIETHYL ACETAL]	
2.78		0.97	1.84	1.83	1.13	13.5	0.96	1.42	1.36	14	13.5	CC(=O)N[C@@H](CC(=O)O)C(=O)O [N-ACETYL-L-ASPARTIC ACID]	
				1.83		3.95					4.54	O=c1ccn(C2OC(CO)C(O)C2O)c(=O)[nH]1 (stereo unspecified) [URIDINE]	

SMILES	LC retention time [1] [min]	LC retention time [2] [min]	LC retention time [3] [min]	LC retention time [4] [min]	LC retention time [5] [min]	LC retention time [6] [min]	LC retention time [7] [min]	LC retention time [8] [min]	LC retention time [9] [min]	LC retention time [10] [min]	LC retention time [11] [min]	LC retention time [20] [min]	other results
O=C(O)CCCCCCCCCCCO [OMEGA-HYDROXYDODECANOIC ACID]					22.2	20.4	1.1	22.4		16.3			
